Results reported in patent US10844049B2, “GLP-1R agonists and uses thereof” (QILU REGOR THERAPEUTICS INC., priority 2018, dated 2020).

Tests used:
GLP1R [1] = molecular target: T1, GLP1R (Homo sapiens, UniProt P43220); test: GLP-1R/β-Arrestin recruitment assay (PathHunter eXpress GLP1R CHO-K1 β-Arrestin GPCR Assay); assay type: cell-based; design: host or cells: PathHunter CHO-K1 GLP1R β-Arrestin cells; details: averaged Bmax, percentage of control GLP-1 (7-37), highest concentration tested
From the text: GLP-1R agonist activity with respect to β-arrestin recruitment can be determined with a cell-based functional assay using PathHuntcr eXpress GLP1R CHO-K1 β-Arrestin GPCR Assay kit (DiscovcrX Cat #93-0300E2CP0M).
The PathHunter β-Arrestin GPCR assay technology utilizes a β-galactosidase (β-gal) enzyme that is split into two fragments, the smaller Enzyme Donor (ED) and the larger Enzyme Acceptor (EA). These fragments can be fused to two proteins that may interact with each other, such as EA-β-Arrestin and ED-GLP-1R. The fusions can be stably expressed in a test cell line, such as the PathHunter CHO-K1 GLP1R β-Arrestin cells described below.
Independently, these fragment fusions have no β-gal activity; however, in solution or in a living cell, they can be brought together and complement to form an active β-gal enzyme due to the interaction between the fused proteins, thus generating a chemiluminescent signal in the presence of a suitable β-gal substrate.
In this experiment, PathHunter CHO-K1 GLP1R β-Arrestin cells from the assay kit were plated at a density of 1000 or 2000 cells/20 μl/well in a 384-well white/clear bottom plates (Greiner Cat #781098). Frozen cells were quickly thawed and 10 mL of cell plating medium (provided by the kit) was added to thawed cells. Cells were stored in a 37° C. incubator under 5% CO2 and kept for approximately 48 hours until ready to ran the assay.
Reference and test compounds were dissolved in 100% DMSO. 5× concentration of an agonist was prepared in serum free DMEM (Thermo Cat #11965). 5 μL of this solution was added to 20 μL cell medium in assay plate for a final top concentration of 10 μM. Plates were then incubated at 37° C. under 5% CO2 for 90 min.
(§1) Following 90 min incubation, detection reagents were made up by combining 1 part Galacton Star Substrate with 5 parts Emerald II™ Solution, and 19 parts of PathHunter Cell Assay Buffer, respectively. 12.5 μL detection reagent was added to each well. The plates were then incubated at room temperature in dark for 60 min. Plates were then read on Envision for 0.1 sec/well.
(§2) EC50 determinations were made from agonist dose-response curves analyzed with a curve fitting program using a 4-parameter logistic dose response equation.
Cells were plated at a density of 1000 or 2000 cells/20 μL/well. Frozen cells were quickly thawed and added to 10 mL of cell plating medium. Cells were stored in a 37° C. incubator under 5% CO2 and left for approximately 48 hours until ready to run the assay.
• 1) Reference agonist compound GLP1 (7-37): dissolved with DMSO to make 1 mM stock solutions, aliquoted and stored at −80° C. • 2) Test compounds (such as the compounds of the invention) came solubilized in 100% DMSO.
Prepare 10× concentration of an agonist in serum free DMEM, and add all solutions into the compound plate. 2.5 μL of this solution was added to 20 μL cell medium in assay plate for a final top concentration of 10 μM. Plates were incubated at 37° C. under 5% CO2 for 30 min. An additional 2.5 μL of Buffer was added to the entire plate for agonist mode and incubated at 37° C. for another 90 min.
Following 90 min incubation, detection reagents were made up as described. 12.5 μL was added to all wells. The plates were then incubated at room temperature in dark for 60 min. Plates were then read on Envision for 0.1 sec/well.
Data analysis: GraphPad Prism 6 was used for establishment of progression curve. EC50S or IC50s were determined by 4-parameter logistic dose response equation.

GLP1R [2] = molecular target: T1, GLP1R; test: β-Arrestin-mediated GLP1R internalization assay (PathHunter engineered U2OS cells); assay type: cell-based; design: host or cells: PathHunter engineered U2OS cells; details: averaged Bmax, percentage of control GLP-1 (7-37), highest concentration tested
From the text: A similar assay can also be used to assess the extent of signal attenuation due to GLP-1R internalization (the β-Arrestin Internalization Assay). In this assay, activated GLP1R Internalization cells were engineered to co-express an untagged GLP1R, Enzyme Acceptor (EA) tagged β-Arrestin, and a ProLink™ (PK) tag localized to the endosomes. Activation of the GLP1R induces β-Arrestin recruitment, which leads to internalization of the Receptor/Arrestin-EA complex in PK-tagged endosomes. This forces complementation of the two β-galactosidase enzyme fragments (EA and PK) to form a functional enzyme that hydrolyzes substrate to generate a chemiluminescent signal. These cells have been modified to prevent long term propagation and expansion using a proprietary compound that has no apparent effect on assay performance.
Specifically, PathHunter engineered U2OS cells from the assay kit (Cat #93-0724E3CP0L) were plated at a density of 2000 cells/20 μL/well in a 384-well white/clear bottom plates (Greiner Cat #781098). Frozen cells were quickly thawed and 10 mL of cell plating medium (provided by the kit) was added to thawed cells. Cells were stored in a 37° C. incubator and kept for approximately 48 hours until ready for the assay.
Reference and test compounds were dissolved in 100% DMSO. 5× concentration of an agonist was prepared in serum free DMEM (Thermo Cat #11965). 5 μL of this solution was added to 20 μL cell medium in assay plate for a final top concentration of 10 μM. Plates were incubated at 37° C. for 180 min.
as §1, with “180” for “90”, “temperature” for “temperature in dark”
as §2

T1 sequence (P43220 24-463): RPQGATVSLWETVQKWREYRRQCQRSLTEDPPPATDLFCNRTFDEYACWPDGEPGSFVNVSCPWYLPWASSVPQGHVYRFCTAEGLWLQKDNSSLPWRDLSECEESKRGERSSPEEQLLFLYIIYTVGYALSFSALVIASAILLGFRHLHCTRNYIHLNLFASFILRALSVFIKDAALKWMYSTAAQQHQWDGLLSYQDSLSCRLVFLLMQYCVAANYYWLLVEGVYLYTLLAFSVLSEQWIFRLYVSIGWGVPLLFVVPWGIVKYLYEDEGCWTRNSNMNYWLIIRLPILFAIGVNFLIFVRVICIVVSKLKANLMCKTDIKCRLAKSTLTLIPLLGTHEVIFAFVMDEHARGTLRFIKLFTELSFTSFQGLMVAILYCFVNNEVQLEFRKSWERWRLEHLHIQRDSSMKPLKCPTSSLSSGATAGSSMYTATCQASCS

| Structure (SMILES) | Bmax (POC) (GLP1R [1]) | Bmax (POC) (GLP1R [2]) |
| --- | --- | --- |
| O=C(O)c1ccc2nc(CN3CCC(c4ccnc(OCc5ccc(Cl)cc5F)n4)CC3)n(C[C@@H]3CCO3)c2c1 [Compound 18, (S)-2-((4-(2-((4-chloro-2-fluorobenzyl)oxy)pyrimidin-4-yl)piperidin-1-yl)methyl)-1-(oxetan-2-ylmethyl)-1H-benzo[d]imidazole-6-carboxylic acid] | 26.2 ± 1.55 | 21.3 ± 3.47 |
| N#Cc1ccc(COc2cccc(C3=CCN(Cc4nc5ccc(C(=O)O)cc5n4C[C@@H]4CCO4)CC3)n2)c(F)c1 [Compound 19, (S)-2-((4-(6-(4-cyano-2-fluorobenzyloxy)pyridin-2-yl)-5,6-dihydropyridin-1(2H)-yl)methyl)-1-(oxetan-2-ylmethyl)-1 h-benzo[d]imidazole-6-carboxylic add] | 26.0 ± 2.78 | 20.1 |
| O=C(O)c1ccc2nc(CN3CCC(c4cncc(OCc5ccc(Cl)cc5F)n4)CC3)n(C[C@@H]3CCO3)c2c1 [Compound 21, (S)-2-((4-(6-(4-chloro-2-fluorobenzyloxy)pyrazin-2-yl)piperidin-1-yl)methyl)-1-(oxetan-2-ylmethyl)-1 h-benzo[d]imidazole-6-carboxylic acid] | 19.0 ± 0.982 | 6.64 ± 1.55 |
| N#Cc1ccc(COc2cncc(C3CCN(Cc4nc5ccc(C(=O)O)cc5n4C[C@@H]4CCO4)CC3)n2)c(F)c1 [Compound 22, (S)-2-((4-(6-(4-cyano-2-fluorobenzyloxy)pyrazin-2-yl)piperidin-1-yl)methyl)-1-(oxetan-2-ylmethyl)-1 h-benzo[d]imidazole-6-carboxylic acid] | 10.9 ± 0.0317 | 7.40 ± 6.97 |
| N#Cc1ccc(COc2cncc(C3=CCN(Cc4nc5ccc(C(=O)O)cc5n4C[C@@H]4CCO4)CC3)n2)c(F)c1 [Compound 23, (S)-2-((4-(6-(4-cyano-2-fluorobenzyloxy)pyrazin-2-yl)-5,6-dihydropyridin-1(2H)-yl)methyl)-1-(oxetan-2-ylmethyl)-1 h-benzo[d]imidazole-6-carboxylic acid] | 18.2 ± 1.51 | 8.92 ± 3.70 |
| O=C(O)c1ccc2nc(CN3CC=C(c4cccc(OCc5ccc(Cl)cc5F)c4)CC3)n(C[C@@H]3CCO3)c2c1 [Compound 28, (S)-2-((4-(3-((4-chloro-2-fluorobenzyl)oxy)phenyl)-3,6-dihydropyridin-1(2H)-yl)methyl)-1-(oxetan-2-ylmethyl)-1 h-benzo[d]imidazole-6-carboxylic add] | 28.5 ± 6.36 | 17.6 ± 6.62 |

Now from value to molecule:

| Bmax (POC) (GLP1R [1]) | Bmax (POC) (GLP1R [2]) | Structure (SMILES) |
| --- | --- | --- |
| 36.6 ± 7.77 | 25.9 ± 1.24 | O=C(O)c1ccc2nc(CN3CC=C(c4ccc(F)c(OCc5ccc(Cl)cc5F)c4)CC3)n(C[C@@H]3CCO3)c2c1 [Compound 29, (S)-2-((4-(3-((4-chloro-2-fluorobenzyl)oxy)-4-fluorophenyl)-3,6-dihydropyridin-1(2H)-yl)methyl)-1-(oxetan-2-ylmethyl)-1 h-benzo[d]imidazole-6-carboxylic acid] |
| 20.2 ± 1.89 | 8.88 ± 3.19 | O=C(O)c1ccc2nc(CN3CC=C(c4cncc(OCc5ccc(Cl)cc5F)n4)CC3)n(C[C@@H]3CCO3)c2c1 [Compound 34, (S)-2-((4-(6-(4-chloro-2-fluorobenzyloxy)pyrazin-2-yl)-5,6-dihydropyridin-1(2H)-yl)methyl)-1-(oxetan-2-ylmethyl)-1 h-benzo[d]imidazole-6-carboxylic acid] |
| 19.9 ± 4.44 | 14.3 ± 9.21 | O=C(O)c1ccc2nc(CN3CC=C(c4ccnc(OCc5ccc(Cl)cc5F)n4)CC3)n(C[C@@H]3CCO3)c2c1 [Compound 35, (S)-2-((4-(2-((4-chloro-2-fluorobenzyl)oxy)pyrimidin-4-yl)-3,6-dihydropyridin-1(2H)-yl)methyl)-1-(oxetan-2-ylmethyl)-1H-benzo[d]imidazole-6-carboxylic add] |
| 35.6 ± 5.38 | 30.0 ± 6.40 | O=C(O)c1ccc2nc(CN3CC=C(c4cccc(OCc5ccc(Cl)cc5F)n4)CC3)n(C[C@@H]3CCO3)c2c1 [Compound 221, (S)-2-((6-((4-chloro-2-fluorobenzyl)oxy)-3′,6′-dihydro-[2,4′-bipyridin]-1′(2′H)-yl)methyl)-1-(oxetan-2-ylmethyl)-1H-benzo[d]imidazole-6-carboxylic acid] |
| 31.1 ± 4.67 | 31.4 ± 2.62 | N#Cc1ccc(COc2nc(C3=CCN(Cc4nc5ccc(C(=O)O)cc5n4C[C@@H]4CCO4)CC3)ccc2F)c(F)c1 [Compound 222, (S)-2-((6-((4-cyano-2-fluorobenzyl)oxy)-5-fluoro-3′,6′-dihydro-[2,4′-bipyridin]-1′(2′H)-yl)methyl)-1-(oxetan-2-ylmethyl)-1H-benzo[d]imidazole-6-carboxylic acid] |
| 33.4 ± 3.78 | 22.5 ± 1.41 | O=C(O)c1ccc2nc(CN3CC=C(c4cccc(OCc5ccc(Cl)cc5F)c4)CC3)n(C[C@@H]3CCO3)c2n1 [Compound 224, (S)-2-((4-(3-((4-chloro-2-fluorobenzyl)oxy)phenyl)-3,6-dihydropyridin-1(2H)-yl)methyl)-3-(oxetan-2-ylmethyl)-3H-imidazo[4,5-b]pyridine-5-carboxylic acid] |
| 32.5 ± 3.55 | 24.0 ± 6.70 | N#Cc1ccc(COc2cccc(C3=CCN(Cc4nc5ccc(C(=O)O)nc5n4C[C@@H]4CCO4)CC3)n2)c(F)c1 [Compound 225, (S)-2-((6-((4-cyano-2-fluorobenzyl)oxy)-3′,6′-dihydro-[2,4′-bipyridin]-1′(2′H)-yl)methyl)-3-(oxetan-2-ylmethyl)-3H-imidazo[4,5-b]pyridine-5-carboxylic add] |
| 40.3 ± 4.10 | 30.0 | O=C(O)c1ccc2nc(CN3CC=C(c4ccc(F)c(OCc5ccc(Cl)cc5F)c4)CC3)n(C[C@@H]3CCO3)c2n1 [Compound 236, (S)-2-((4-(3-((4-chloro-2-fluorobenzyl)oxy)-4-fluorophenyl)-5,6-dihydropyridin-1(2H)-yl)methyl)-3-(oxetan-2-ylmethyl)-3H-imidazo[4,5-b]pyridine-5-carboxylic acid] |
